Measured values as given in BindingDB's records for doi:10.1124/jpet.104.081539 (Kyowa Hakko Kogyo, 2005).

Tests used:
[1] = biological target: 5-hydroxytryptamine receptor 2A (Rattus norvegicus, UniProt P14842)
[2] = biological target: T1, Polyunsaturated fatty acid 5-lipoxygenase (Homo sapiens, UniProt P09917)
T1 sequence (P09917 whole entry): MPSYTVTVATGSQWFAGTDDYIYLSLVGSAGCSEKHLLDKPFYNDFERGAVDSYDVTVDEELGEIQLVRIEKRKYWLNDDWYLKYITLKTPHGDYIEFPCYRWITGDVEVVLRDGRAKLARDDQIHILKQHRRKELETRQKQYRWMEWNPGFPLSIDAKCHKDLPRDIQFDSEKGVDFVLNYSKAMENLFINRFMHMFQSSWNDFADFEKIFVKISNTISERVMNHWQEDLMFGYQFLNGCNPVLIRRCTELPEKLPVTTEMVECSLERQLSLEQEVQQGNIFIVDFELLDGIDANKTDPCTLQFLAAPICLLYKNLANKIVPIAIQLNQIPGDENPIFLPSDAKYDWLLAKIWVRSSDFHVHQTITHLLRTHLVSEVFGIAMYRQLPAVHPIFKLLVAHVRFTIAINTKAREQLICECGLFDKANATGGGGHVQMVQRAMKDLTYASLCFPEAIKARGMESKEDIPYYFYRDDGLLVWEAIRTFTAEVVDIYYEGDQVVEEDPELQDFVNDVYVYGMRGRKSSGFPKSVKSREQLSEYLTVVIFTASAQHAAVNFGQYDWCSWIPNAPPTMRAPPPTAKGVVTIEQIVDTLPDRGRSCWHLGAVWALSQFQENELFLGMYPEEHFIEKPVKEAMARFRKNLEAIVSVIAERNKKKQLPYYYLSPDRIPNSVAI

[3] = biological target: Histamine H2 receptor (Homo sapiens, UniProt P25021)
Chain of Histamine H2 receptor (P25021 whole entry): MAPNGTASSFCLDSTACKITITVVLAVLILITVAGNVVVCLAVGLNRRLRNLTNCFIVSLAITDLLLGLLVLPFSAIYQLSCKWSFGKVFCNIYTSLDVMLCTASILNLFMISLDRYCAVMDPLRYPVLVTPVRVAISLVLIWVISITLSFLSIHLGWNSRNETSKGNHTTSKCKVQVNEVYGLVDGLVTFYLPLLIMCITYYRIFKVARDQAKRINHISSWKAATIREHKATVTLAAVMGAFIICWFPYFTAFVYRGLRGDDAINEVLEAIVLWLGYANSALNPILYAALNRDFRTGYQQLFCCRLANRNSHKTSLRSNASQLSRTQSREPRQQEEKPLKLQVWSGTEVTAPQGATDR

[4] = biological target: D(2) dopamine receptor (Homo sapiens, UniProt P14416)
Chain of D(2) dopamine receptor (P14416 whole entry): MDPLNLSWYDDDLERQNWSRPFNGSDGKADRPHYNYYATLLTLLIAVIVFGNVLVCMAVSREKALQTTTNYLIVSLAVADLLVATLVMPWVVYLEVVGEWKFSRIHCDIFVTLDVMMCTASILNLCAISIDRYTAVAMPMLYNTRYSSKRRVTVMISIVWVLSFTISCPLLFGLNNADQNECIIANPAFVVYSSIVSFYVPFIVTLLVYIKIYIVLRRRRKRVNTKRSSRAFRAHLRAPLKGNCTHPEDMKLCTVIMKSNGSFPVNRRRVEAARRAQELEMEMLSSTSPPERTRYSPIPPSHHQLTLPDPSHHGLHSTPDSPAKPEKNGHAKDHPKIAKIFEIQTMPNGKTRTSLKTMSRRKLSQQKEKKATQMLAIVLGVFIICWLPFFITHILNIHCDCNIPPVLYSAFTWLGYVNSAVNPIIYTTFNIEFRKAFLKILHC

[5] = biological target: T2, Alpha-1A adrenergic receptor (Rattus norvegicus, UniProt P43140)
T2 sequence (P43140 whole entry): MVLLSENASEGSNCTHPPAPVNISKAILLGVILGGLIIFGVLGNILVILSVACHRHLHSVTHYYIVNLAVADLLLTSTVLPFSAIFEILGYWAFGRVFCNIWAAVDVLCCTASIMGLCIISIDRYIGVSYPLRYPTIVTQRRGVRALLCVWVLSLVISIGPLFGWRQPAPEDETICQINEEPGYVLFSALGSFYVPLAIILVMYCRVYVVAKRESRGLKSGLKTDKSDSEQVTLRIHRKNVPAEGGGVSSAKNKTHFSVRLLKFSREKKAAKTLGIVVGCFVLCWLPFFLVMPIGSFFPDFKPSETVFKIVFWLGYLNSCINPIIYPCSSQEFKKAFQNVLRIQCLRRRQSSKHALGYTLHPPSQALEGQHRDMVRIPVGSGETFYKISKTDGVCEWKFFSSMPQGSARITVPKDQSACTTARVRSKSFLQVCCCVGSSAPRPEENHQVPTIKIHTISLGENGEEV

[6] = biological target: D(1A) dopamine receptor (Homo sapiens, UniProt P21728)
Chain of D(1A) dopamine receptor (P21728 whole entry): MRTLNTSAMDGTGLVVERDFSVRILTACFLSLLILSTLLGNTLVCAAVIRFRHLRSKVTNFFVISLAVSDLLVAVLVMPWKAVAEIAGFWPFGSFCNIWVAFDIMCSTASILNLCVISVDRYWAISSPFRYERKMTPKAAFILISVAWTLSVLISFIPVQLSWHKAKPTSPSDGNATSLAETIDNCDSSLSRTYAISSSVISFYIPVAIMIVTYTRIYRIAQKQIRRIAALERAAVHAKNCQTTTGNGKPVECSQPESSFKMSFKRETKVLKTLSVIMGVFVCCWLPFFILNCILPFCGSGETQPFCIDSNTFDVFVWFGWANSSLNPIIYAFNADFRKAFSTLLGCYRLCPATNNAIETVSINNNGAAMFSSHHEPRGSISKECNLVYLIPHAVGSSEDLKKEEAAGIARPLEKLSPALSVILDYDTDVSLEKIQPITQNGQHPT

[7] = biological target: T3, Muscarinic acetylcholine receptor M1 (Homo sapiens, UniProt P11229)
T3 sequence (P11229 whole entry): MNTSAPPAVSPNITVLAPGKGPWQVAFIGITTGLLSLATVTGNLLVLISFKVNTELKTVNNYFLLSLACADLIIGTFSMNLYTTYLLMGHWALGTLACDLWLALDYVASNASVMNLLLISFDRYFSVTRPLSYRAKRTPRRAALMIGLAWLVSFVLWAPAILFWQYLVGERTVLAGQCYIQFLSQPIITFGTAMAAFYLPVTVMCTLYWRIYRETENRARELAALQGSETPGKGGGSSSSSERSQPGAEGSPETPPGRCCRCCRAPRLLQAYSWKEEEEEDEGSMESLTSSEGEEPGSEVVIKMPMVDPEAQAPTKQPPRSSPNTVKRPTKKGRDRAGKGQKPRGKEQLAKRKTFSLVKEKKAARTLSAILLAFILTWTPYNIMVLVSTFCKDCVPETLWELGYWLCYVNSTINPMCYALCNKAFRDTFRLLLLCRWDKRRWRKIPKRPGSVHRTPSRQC

[8] = biological target: T4, Cysteinyl leukotriene receptor 1 (Homo sapiens, UniProt Q9Y271)
T4 sequence (Q9Y271 whole entry): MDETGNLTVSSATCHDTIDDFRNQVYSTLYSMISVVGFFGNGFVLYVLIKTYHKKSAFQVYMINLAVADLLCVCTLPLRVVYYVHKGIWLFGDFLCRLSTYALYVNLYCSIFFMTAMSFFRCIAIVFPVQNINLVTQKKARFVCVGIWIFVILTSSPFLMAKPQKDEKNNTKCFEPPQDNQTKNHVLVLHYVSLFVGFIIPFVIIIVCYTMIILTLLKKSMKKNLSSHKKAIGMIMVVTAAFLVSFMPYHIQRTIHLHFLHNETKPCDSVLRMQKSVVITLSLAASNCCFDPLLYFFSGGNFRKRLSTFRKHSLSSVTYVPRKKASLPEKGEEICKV

[9] = biological target: Leukotriene B4 receptor 1 (Homo sapiens) (UniProt Q15722)
Chain of Leukotriene B4 receptor 1 (Homo sapiens) (Q15722 whole entry, looked up): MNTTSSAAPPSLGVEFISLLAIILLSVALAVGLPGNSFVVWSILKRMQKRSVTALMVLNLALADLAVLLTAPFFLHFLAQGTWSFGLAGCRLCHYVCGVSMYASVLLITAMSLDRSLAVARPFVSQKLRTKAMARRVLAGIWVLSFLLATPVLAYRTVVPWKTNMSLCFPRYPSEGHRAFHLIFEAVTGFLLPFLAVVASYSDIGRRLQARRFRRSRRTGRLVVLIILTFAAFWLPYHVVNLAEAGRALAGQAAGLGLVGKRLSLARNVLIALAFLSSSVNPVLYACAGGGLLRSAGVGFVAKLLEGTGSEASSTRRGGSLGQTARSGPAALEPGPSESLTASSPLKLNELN

Measured: Ki

Chain of 5-hydroxytryptamine receptor 2A (P14842 whole entry): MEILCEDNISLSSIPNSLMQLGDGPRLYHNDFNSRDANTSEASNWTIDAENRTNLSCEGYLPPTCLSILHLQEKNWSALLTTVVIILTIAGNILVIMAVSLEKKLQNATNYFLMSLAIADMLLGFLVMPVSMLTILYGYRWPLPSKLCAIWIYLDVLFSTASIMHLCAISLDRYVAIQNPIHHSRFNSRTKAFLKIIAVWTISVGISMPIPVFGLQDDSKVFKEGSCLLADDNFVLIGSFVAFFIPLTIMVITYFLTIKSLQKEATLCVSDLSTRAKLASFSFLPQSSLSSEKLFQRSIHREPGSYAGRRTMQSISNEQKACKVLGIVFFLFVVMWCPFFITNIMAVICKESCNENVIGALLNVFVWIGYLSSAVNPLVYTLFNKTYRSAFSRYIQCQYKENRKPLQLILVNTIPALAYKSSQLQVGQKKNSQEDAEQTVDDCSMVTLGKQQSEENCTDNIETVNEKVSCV

CCC(=O)N1c2ccccc2C(N(C(C)=O)c2ccccc2)CC1C (configuration not stated) [K376]
> 1 µM: all assays above

CC(C)C(=O)N(c1ccccc1)C1CC(C)N(C(=O)c2ccccc2)c2ccccc21 (configuration not stated) [K117]
> 1 µM: all assays above

CC1CC(N(C(=O)C2CC2)c2ccccc2)c2ccccc2N1C(=O)c1ccccc1 (configuration not stated) [K604]
> 1 µM: all assays above
